Test results published in patent publication US6525001B1, “Substituted pyrimidine and pyridine herbicides” (Mid-American Commercialization Corporation, priority 1997, dated 2003).

How the values were obtained:
Experiment in all cases: Test B pre-/postemergence
Assay type in all cases: in vivo
Set-up in all cases: key: 0 is no effect; 10 is complete control
[1] = test system: cocklebur (Xanthium strumarium)
In short: (§1)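 Scored visually 0 (none) to 10 (complete control) against untreated plants after twelve to sixteen greenhouse days. Test chemicals, formulated in surfactant-containing non-phytotoxic solvent, applied to soil after planting and, separately, onto 1- to 4-leaf (2–18 cm) plants.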

[2] = test system: pigweed (Amaranthus retroflexus)
In short: as §1

[3] = test system: blackgrass (Alopecurus myosuroides)
In short: as §1

[4] = test system: broadleaf signalgrass (Brachiaria decumbens)
In short: as §1

[5] = test system: momingglory (Ipomoea hederacea)
In short: as §1

Cc1cnc(-c2ccc(C(F)(F)F)cc2)nc1Cn1ccc(C(F)(F)C(F)(F)F)n1 [Compound 14]
Plant response rating, Cocklebur ([1]; Rate 62 g/ha, Postemergence): 4 | Cocklebur plant response rating ([1]; Rate 62 g/ha, Preemergence): 0 | Plant response rating, Cocklebur ([1]; Rate 125 g/ha, Postemergence): 7 | Plant response rating, Cocklebur ([1]; Rate 250 g/ha, Postemergence): 7 | Plant response rating, Cocklebur ([1]; Rate 250 g/ha, Preemergence): 0 | Plant response rating, Cocklebur ([1]; Rate 500 g/ha, Postemergence): 7 | Plant response rating, Redroot pigweed ([2]; Rate 62 g/ha, Postemergence): 8 | Redroot pigweed plant response rating ([2]; Rate 62 g/ha, Preemergence): 0 | Plant response rating, Redroot pigweed ([2]; Rate 125 g/ha, Postemergence): 9 | Redroot pigweed plant response rating ([2]; Rate 125 g/ha, Preemergence): 2 | Plant response rating, Redroot pigweed ([2]; Rate 250 g/ha, Postemergence): 9 | Plant response rating, Redroot pigweed ([2]; Rate 250 g/ha, Preemergence): 4 | Plant response rating, Redroot pigweed ([2]; Rate 500 g/ha, Postemergence): 9 | Plant response rating, Redroot pigweed ([2]; Rate 500 g/ha, Preemergence): 4 | Plant response rating, Blackgrass ([3]; Rate 62 g/ha, Postemergence): 1 | Blackgrass plant response rating ([3]; Rate 62 g/ha, Preemergence): 0 | Plant response rating, Blackgrass ([3]; Rate 125 g/ha, Postemergence): 2 | Blackgrass plant response rating ([3]; Rate 125 g/ha, Preemergence): 0 | Plant response rating, Blackgrass ([3]; Rate 250 g/ha, Postemergence): 3 | Plant response rating, Blackgrass ([3]; Rate 250 g/ha, Preemergence): 0 | Plant response rating, Blackgrass ([3]; Rate 500 g/ha, Postemergence): 3 | Plant response rating, Blackgrass ([3]; Rate 500 g/ha, Preemergence): 3 | Plant response rating, B. signalgrass ([4]; Rate 62 g/ha, Postemergence): 2 | B. signalgrass plant response rating ([4]; Rate 62 g/ha, Preemergence): 0 | Plant response rating, B. signalgrass ([4]; Rate 125 g/ha, Postemergence): 2 | B. signalgrass plant response rating ([4]; Rate 125 g/ha, Preemergence): 0 | Plant response rating, B. signalgrass ([4]; Rate 250 g/ha, Postemergence): 3 | Plant response rating, B. signalgrass ([4]; Rate 250 g/ha, Preemergence): 0 | Plant response rating, B. signalgrass ([4]; Rate 500 g/ha, Postemergence): 4 | Plant response rating, B. signalgrass ([4]; Rate 500 g/ha, Preemergence): 5 | Plant response rating, Morningglory ([5]; Rate 62 g/ha, Postemergence): 2 | Morningglory plant response rating ([5]; Rate 62 g/ha, Preemergence): 0 | Plant response rating, Morningglory ([5]; Rate 125 g/ha, Postemergence): 6 | Morningglory plant response rating ([5]; Rate 125 g/ha, Preemergence): 0 | Plant response rating, Morningglory ([5]; Rate 250 g/ha, Postemergence): 6 | Plant response rating, Morningglory ([5]; Rate 250 g/ha, Preemergence): 2 | Plant response rating, Morningglory ([5]; Rate 500 g/ha, Postemergence): 8 | Plant response rating, Morningglory ([5]; Rate 500 g/ha, Preemergence): 8

Cc1cnc(-c2ccc(C(F)(F)F)cc2)nc1Cn1nc(C(F)(F)F)cc1C [Compound 13]
Plant response rating, Cocklebur ([1]; Rate 62 g/ha, Postemergence): 6 | Cocklebur plant response rating ([1]; Rate 62 g/ha, Preemergence): 0 | Plant response rating, Cocklebur ([1]; Rate 125 g/ha, Postemergence): 9 | Plant response rating, Cocklebur ([1]; Rate 250 g/ha, Postemergence): 9 | Plant response rating, Cocklebur ([1]; Rate 250 g/ha, Preemergence): 5 | Plant response rating, Cocklebur ([1]; Rate 500 g/ha, Postemergence): 9 | Plant response rating, Cocklebur ([1]; Rate 500 g/ha, Preemergence): 7 | Plant response rating, Redroot pigweed ([2]; Rate 62 g/ha, Postemergence): 9 | Redroot pigweed plant response rating ([2]; Rate 62 g/ha, Preemergence): 7 | Plant response rating, Redroot pigweed ([2]; Rate 125 g/ha, Postemergence): 9 | Redroot pigweed plant response rating ([2]; Rate 125 g/ha, Preemergence): 9 | Plant response rating, Redroot pigweed ([2]; Rate 250 g/ha, Postemergence): 10 | Plant response rating, Redroot pigweed ([2]; Rate 250 g/ha, Preemergence): 9 | Plant response rating, Redroot pigweed ([2]; Rate 500 g/ha, Postemergence): 10 | Plant response rating, Redroot pigweed ([2]; Rate 500 g/ha, Preemergence): 9 | Plant response rating, Blackgrass ([3]; Rate 62 g/ha, Postemergence): 3 | Blackgrass plant response rating ([3]; Rate 62 g/ha, Preemergence): 2 | Plant response rating, Blackgrass ([3]; Rate 125 g/ha, Postemergence): 3 | Blackgrass plant response rating ([3]; Rate 125 g/ha, Preemergence): 4 | Plant response rating, Blackgrass ([3]; Rate 250 g/ha, Postemergence): 5 | Plant response rating, Blackgrass ([3]; Rate 250 g/ha, Preemergence): 4 | Plant response rating, Blackgrass ([3]; Rate 500 g/ha, Postemergence): 5 | Plant response rating, Blackgrass ([3]; Rate 500 g/ha, Preemergence): 9 | Plant response rating, B. signalgrass ([4]; Rate 62 g/ha, Postemergence): 5 | B. signalgrass plant response rating ([4]; Rate 62 g/ha, Preemergence): 7 | Plant response rating, B. signalgrass ([4]; Rate 125 g/ha, Postemergence): 5 | B. signalgrass plant response rating ([4]; Rate 125 g/ha, Preemergence): 8 | Plant response rating, B. signalgrass ([4]; Rate 250 g/ha, Postemergence): 7 | Plant response rating, B. signalgrass ([4]; Rate 250 g/ha, Preemergence): 9 | Plant response rating, B. signalgrass ([4]; Rate 500 g/ha, Postemergence): 8 | Plant response rating, B. signalgrass ([4]; Rate 500 g/ha, Preemergence): 9 | Plant response rating, Morningglory ([5]; Rate 62 g/ha, Postemergence): 7 | Morningglory plant response rating ([5]; Rate 62 g/ha, Preemergence): 9 | Plant response rating, Morningglory ([5]; Rate 125 g/ha, Postemergence): 7 | Morningglory plant response rating ([5]; Rate 125 g/ha, Preemergence): 10 | Plant response rating, Morningglory ([5]; Rate 250 g/ha, Postemergence): 9 | Plant response rating, Morningglory ([5]; Rate 250 g/ha, Preemergence): 9 | Plant response rating, Morningglory ([5]; Rate 500 g/ha, Postemergence): 9 | Plant response rating, Morningglory ([5]; Rate 500 g/ha, Preemergence): 10
